# Key:
# [1] = target: T1, ULK1 (Homo sapiens, UniProt O75385); test: ULK1 inhibition assay; format: biochemical; settings: * = tested as a mixture of regioisomers
# T1 sequence (O75385 1-1050): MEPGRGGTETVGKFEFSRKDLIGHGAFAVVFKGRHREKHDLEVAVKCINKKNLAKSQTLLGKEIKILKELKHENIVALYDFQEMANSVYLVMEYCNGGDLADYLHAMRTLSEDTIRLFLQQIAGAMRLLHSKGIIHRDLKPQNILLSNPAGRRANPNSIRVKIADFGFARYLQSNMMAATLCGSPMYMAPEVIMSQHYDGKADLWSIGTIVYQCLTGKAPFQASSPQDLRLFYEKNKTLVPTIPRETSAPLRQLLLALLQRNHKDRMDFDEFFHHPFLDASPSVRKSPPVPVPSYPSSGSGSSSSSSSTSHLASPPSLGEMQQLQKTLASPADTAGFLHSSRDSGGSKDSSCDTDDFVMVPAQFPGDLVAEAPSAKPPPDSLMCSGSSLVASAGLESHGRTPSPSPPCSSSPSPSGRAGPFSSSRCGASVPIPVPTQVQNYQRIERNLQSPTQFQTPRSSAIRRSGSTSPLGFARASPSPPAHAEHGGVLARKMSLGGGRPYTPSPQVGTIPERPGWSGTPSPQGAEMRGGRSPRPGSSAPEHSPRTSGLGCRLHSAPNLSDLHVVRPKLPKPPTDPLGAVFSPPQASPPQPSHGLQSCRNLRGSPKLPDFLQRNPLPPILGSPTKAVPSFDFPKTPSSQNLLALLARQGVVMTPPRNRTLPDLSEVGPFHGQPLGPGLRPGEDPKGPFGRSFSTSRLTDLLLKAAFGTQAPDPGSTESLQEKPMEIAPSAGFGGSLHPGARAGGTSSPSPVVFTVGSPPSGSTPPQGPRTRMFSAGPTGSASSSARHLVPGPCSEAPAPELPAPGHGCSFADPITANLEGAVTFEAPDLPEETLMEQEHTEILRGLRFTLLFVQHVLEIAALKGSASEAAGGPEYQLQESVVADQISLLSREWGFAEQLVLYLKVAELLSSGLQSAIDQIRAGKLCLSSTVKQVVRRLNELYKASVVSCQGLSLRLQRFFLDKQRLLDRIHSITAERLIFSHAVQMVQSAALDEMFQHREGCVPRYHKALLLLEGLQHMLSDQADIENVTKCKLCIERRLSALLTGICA
# [2] = system: MDA-MB-468 cells expressing mCherry-EGFP-LC3; test: Autophagic flux by flow cytometry; format: cell-based; settings: 48 h
# Experimental: To investigate the mechanism by which Compound 349 potentiates the cytotoxic effects of PARP inhibitors, MDA-MB-468 cells expressing mCherry-EGFP-LC3 were treated with olaparib (30 μM) and/or Compound 349 (10 μM) for 48 h and then quantified for autophagic flux. For these experiments, MDA-MB-468 cells stably expressing the mCherry-GFP-LC3 fusion protein were plated in 6-well plates at a density of 6×10^5 cells/well in growth media DMEM/F12+GlutaMAX-1 (Gibco) supplemented with 10% FBS (Gibco) and 1× Anti-Anti (Gibco) and allowed to grow overnight. Cells were treated, trypsinized, and then resuspended in PBS, and analytical cytometry was performed using an LSRFortessa 14-color (BD Biosciences) with a 488 nm and […] laser. For flow cytometry, wild type MDA-MB-468 cells were used as the unstained control, and MDA-MB-468 cells expressing either mCherry or GFP were used for comparison. Events of 10,000 were collected for each sample.
# [3] = system: MDA-MB-468 cells; test: CellTiter-Glo cell viability dose-response matrix, synergy by Combenefit (Loewe model); format: cell-based; settings: 72 h; for concentrations at which significant synergy was observed: combination of Compound 349 and olaparib
# Experimental: Different concentrations of Compound 349 with olaparib (FIG. 13A) were tested to measure the combined effect of inhibiting both ULK1/2 and PARP. For these experiments, MDA-MB-468 cells were treated with Compound 349 (0-15 μM) and olaparib (0-15 μM) in a dose-response matrix for 72 h, and cell viability was assessed by a CellTiter-Glo assay, and the synergistic effect was analyzed with Combenefit using the Loewe model.
# [4] = system: A549 cells; test: A549 xenograft large tumors, ULK inhibitor alone versus carboplatin; format: in vivo, nude mice; settings: A549 large tumors (over 200 mm^3 at start); carboplatin 25 mg/kg every three days; day 72
# Experimental: A549 cells (5M cells) were injected bilaterally into the flanks of forty-six nude mice to create tumor xenografts in order to assess the efficacy of Compound 14 in treating larger non-small cell lung cancer tumors compared to carboplatin, the current standard of care therapy for non-small cell lung cancer. After 40 days of letting tumor cells proliferate (at which point tumors were over 200 mm^3 in volume), administration of carboplatin or Compound 14 was initiated. One cohort of twelve mice received 20 mg/kg twice daily doses of Compound 14, one cohort of ten mice received 30 mg/kg twice daily doses of Compound 14, one cohort of seven mice received 25 mg/kg doses of carboplatin every three days, one cohort of seven mice received 40 mg/kg once daily doses of Compound 14, and the remaining ten mice were treated with vehicle. Treatment and monitoring was continued until day 72 post inoculation of tumor cells (32 days of treatment).
# [5] = system: A549 cells; test: A549 xenografts, ULK inhibitor alone and in combination with carboplatin; format: in vivo, nude mice
# Experimental: A549 cells (5M cells) were injected bilaterally into the flanks of thirty-six nude mice to create tumor xenografts in order to assess the efficacy of Compound 14 in treating non-small cell lung cancer tumors both alone and in combination with carboplatin, the current standard of care therapy for non-small cell lung cancer. After 11 days of letting tumor cells proliferate (at which point tumors were ˜50 mm^3 in volume), administration of carboplatin, Compound 14, or combinations began. One cohort of six mice received 20 mg/kg twice daily doses of Compound 14 alone, one cohort of six mice received 30 mg/kg twice daily doses of Compound 14 alone, one cohort of six mice received 25 mg/kg doses of carboplatin every three days, one cohort of six mice received 20 mg/kg twice daily doses of Compound 14 in conjunction with 25 mg/kg doses of carboplatin every three days, one cohort of six mice received 30 mg/kg twice daily doses of Compound 14 in conjunction with 25 mg/kg doses of carboplatin every three days, and the remaining six mice were treated with vehicle. Treatment and monitoring was continued until day 53 post inoculation of tumor cells (42 days of treatment).
# [6] = system: MIA PaCa-2 cells; test: MIA PaCa-2 xenografts, ULK inhibitor alone versus gemcitabine; format: in vivo, nude mice; settings: day 42, Compound 14 20 mg/kg twice daily, gemcitabine dose not given
# Experimental: MIA PaCa-2 cells were injected bilaterally into the flanks of nude mice to create tumor xenografts in order to assess the efficacy of Compound 14 in treating pancreatic cancer tumors compared to gemcitabine, a current standard of care therapy for pancreatic cancer. After 3 days of letting tumor cells proliferate (at which point tumors were ˜100 mm^3 in volume), administration of gemcitabine or Compound 14 was initiated. One cohort received 20 mg/kg twice daily doses of Compound 14, one cohort received gemcitabine, and the remaining cohort was treated with vehicle. Treatment and monitoring were continued until day 42 post inoculation of tumor cells (30 days of treatment).
Structure (SMILES),IC50 [1],other results
CNC(=O)Cc1ccccc1Oc1nc(Nc2cc(OC)c(OC)c(OC)c2)ncc1Br [Compound 327],> 2000 nM,–
COc1cc(Nc2ncc(Br)c(Oc3ccccc3CNC(C)=O)n2)cc(OC)c1OC [Compound 328],> 2000 nM,–
COc1cc(Nc2ncc(Br)c(Oc3cccc4cc[nH]c34)n2)cc(OC)c1OC [Compound 329a],> 2000 nM,–
COc1cc(Nc2nc(Oc3cccc4cc[nH]c34)ncc2Br)cc(OC)c1OC [Compound 329b],> 2000 nM,–
COc1cc(Nc2ncc(Br)c(Oc3cccc4c3CCCC4)n2)cc(OC)c1OC [Compound 330a],> 2000 nM,–
COc1cc(Nc2nc(Oc3cccc4c3CCCC4)ncc2Br)cc(OC)c1OC [Compound 330b],> 2000 nM,–
COc1cc(Nc2ncc(Br)c(-n3nnc4ccccc43)n2)cc(OC)c1OC [Compound 331a],> 2000 nM,–
COc1cc(Nc2nc(-n3nnc4ccccc43)ncc2Br)cc(OC)c1OC [Compound 331b],200 to 2000 nM,–
O=C(C1CC1)N1CCc2cc(Nc3ncc(C(F)(F)F)c(NC4CC4)n3)ccc2C1 [Compound 332],< 200 nM,–
O=C1CCc2cc(Nc3ncc(C(F)(F)F)c(NCCCNC(=O)C4CC4)n3)ccc2N1 [Compound 333],< 200 nM,–
O=c1[nH][nH]c(=O)c2cc(Nc3ncc(C(F)(F)F)c(NC4CC4)n3)ccc12 [Compound 334],< 200 nM,–
COc1cc(Nc2ncc(Br)c(Oc3cccc4c3N(C(C)=O)CCC4)n2)cc(OC)c1OC [Compound 335a],> 2000 nM,–
COc1cc(Nc2nc(Oc3cccc4c3N(C(C)=O)CCC4)ncc2Br)cc(OC)c1OC [Compound 335b],< 200 nM,–
COc1cc(Nc2ncc(Br)c(Oc3ccccc3O)n2)cc(OC)c1OC [Compound 336],> 2000 nM,–
CNC(=O)c1ccccc1COc1nc(Nc2cc(OC)c(OC)c(OC)c2)ncc1Br [Compound 338],> 2000 nM,–
CCN1CCOc2cc(Nc3nc(Nc4ccc5c(c4)CCC(=O)N5)ncc3Br)cnc21 [Compound 343],< 200 nM,–
CCN1CCOc2cc(Nc3ncc(C(F)(F)F)c(NC4CC4)n3)cnc21 [Compound 344],< 200 nM,–

Structure (SMILES),IC50 [1],other results
COc1cc(Nc2ncc(Br)c(Oc3ccccc3NS(C)(=O)=O)n2)cc(OC)c1OC [Compound 345],> 2000 nM,–
COc1cc(Nc2ncc(C(F)(F)F)c(Oc3ccccc3N)n2)cc(OC)c1OC [Compound 346],< 200 nM,–
O=C1CCc2cc(Nc3ncc(C(F)(F)F)c(Nc4ccccc4CO)n3)ccc2N1 [Compound 347],< 200 nM,–
COc1cc(Nc2ncc(Cl)c(Nc3ccccc3CO)n2)cc(OC)c1OC [Compound 348],> 2000 nM,–
COc1ccc(Nc2ncc(C(F)(F)F)c(NC3CC3)n2)cc1OC [Compound 349],< 200 nM,"olaparib-induced increase in autophagic flux ([2]; Compound 349 10 μM concomitant with olaparib 30 μM): significantly suppressed the olaparib-induced increase in autophagic flux to a level similar to that observed in untreated control cells; antiproliferative synergy ([3]; Compound 349 (0-15 μM) with olaparib (0-15 μM)): strong antiproliferative synergy; maximum synergy score ([3]; Compound 349 (0-15 μM) with olaparib (0-15 μM), Loewe model): 34; concentrations at which significant synergy was observed [3]: 0.021 to 15 µM"
CC(=O)NNc1nc(Nc2ccc3c(c2)CCC(=O)N3)ncc1C(F)(F)F [Compound 350],> 2000 nM,–
COc1cc(Nc2ncc(Br)c(Oc3cccc4ccncc34)n2)cc(OC)c1OC [Compound 351],> 2000 nM,–
COc1cc(Nc2ncc(Br)c(Oc3cccc4[nH]nnc34)n2)cc(OC)c1OC [Compound 352],> 2000 nM,–
OCc1ccccc1Nc1nc(Nc2cc(F)c(F)c(F)c2)ncc1Br [Compound 353],> 2000 nM,–
COc1cc(Nc2ncc(Br)c(Oc3cccc(O)c3[N+](=O)[O-])n2)cc(OC)c1OC [Compound 354],> 2000 nM,–
COc1cc(Nc2ncc(Br)c(Oc3ccccc3C3=NC(C)(C)CO3)n2)cc(OC)c1OC [Compound 355],> 2000 nM,–
COc1cc(Nc2ncc(Br)c(Oc3ccccc3[S+](C)[O-])n2)cc(OC)c1OC (centres unmarked) [Compound 356],> 2000 nM,–
O=C1CCc2cc(Nc3ncc(C(F)(F)F)c(OCCN4CCOC4=O)n3)ccc2N1 [Compound 357],200 to 2000 nM,–
Nc1nc(N(C(=O)C2CC2)c2ccc3c(c2)CCC(=O)N3)ncc1C(F)(F)F [Compound 358],> 2000 nM,–
"N.N.O=C([O-])C1(C(=O)[O-])CCC1.[Pt+2] [carboplatin, reference compound]",–,"tumor volume by the end of the study [4]: above 500 mm^3; final tumor average volume ([5]; carboplatin 25 mg/kg every three days alone, day 53): ~200 mm^3; tumor growth compared to the control ([5]; monotherapy: carboplatin 25 mg/kg every three days, Compound 14 20 mg/kg twice daily): markedly reduced growth compared to the control"
"Nc1ccn([C@@H]2O[C@H](CO)[C@@H](O)C2(F)F)c(=O)n1 [gemcitabine, reference compound]",–,final tumor volume [6]: ~800 mm^3
"O=C(c1cc(Cc2n[nH]c(=O)c3ccccc23)ccc1F)N1CCN(C(=O)C2CC2)CC1 [olaparib, reference compound]",–,increase in autophagic flux compared with control cells ([2]; olaparib 30 μM alone): approximately 30%; concentrations at which significant synergy was observed [3]: 3.8 to 15 µM

# — patent US20230130766A1 (SALK INSTITUTE FOR BIOLOGICAL STUDIES, priority 2020, published 2023)
